Experimental data reported in patent US20250179052A1, “PYRIMIDINYL-OXY-QUINOLINE BASED HERBICIDAL COMPOUNDS” (SYNGENTA CROP PROTECTION AG, priority 2022, published 2025).

Legend:
Details in all cases: 250 g/ha, evaluated after 13 days, five-point scale
[1] = system: Amaranthus retoflexus (AMARE); test: Post-emergence herbicidal glasshouse test; format: in vivo
AMAPA [2] = test: Post-emergence herbicidal glasshouse test; format: in vivo, Amaranthus tuberculatus
[3] = system: Echinochloa crus-galli (ECHCG); test: Post-emergence herbicidal glasshouse test; format: in vivo
[4] = system: Ipomoea hederacea (IPOHE); test: Post-emergence herbicidal glasshouse test; format: in vivo
Setaria faberi (SETFA) [5] = test: Post-emergence herbicidal glasshouse test; format: in vivo
[6] = system: Amaranthus retoflexus (AMARE); test: Pre-emergence herbicidal glasshouse test; format: in vivo
AMAPA [7] = test: Pre-emergence herbicidal glasshouse test; format: in vivo, Amaranthus tuberculatus
[8] = system: Echinochloa crus-galli (ECHCG); test: Pre-emergence herbicidal glasshouse test; format: in vivo
[9] = system: Ipomoea hederacea (IPOHE); test: Pre-emergence herbicidal glasshouse test; format: in vivo
Setaria faberi (SETFA) [10] = test: Pre-emergence herbicidal glasshouse test; format: in vivo

Row | SMILES | percentage damage caused to the plant, AMARE [1] | percentage damage caused to the plant, AMAPA (AMAPA [2]) | percentage damage caused to the plant, ECHCG [3] | percentage damage caused to the plant, IPOHE [4] | percentage damage caused to the plant, SETFA (Setaria faberi (SETFA) [5]) | percentage damage caused to the plant, AMARE [6] | percentage damage caused to the plant, AMAPA (AMAPA [7]) | percentage damage caused to the plant, ECHCG [8] | percentage damage caused to the plant, IPOHE [9] | percentage damage caused to the plant, SETFA (Setaria faberi (SETFA) [10])
1 | COc1ncc2c(Oc3ncc(Cl)cn3)cccc2n1 [Compound 1.016] | 4 (4=61-80%) | 5 (5=81-100%) | 1 (1=0-20%) | 2 (2=21-40%) | 1 (1=0-20%) | 5 (5=81-100%) | 5 (5=81-100%) | 3 (3=41-60%) | 4 (4=61-80%) | 3 (3=41-60%)
2 | FC(F)c1ncc2c(Oc3ncc(Cl)cn3)cccc2n1 [Compound 1.019] | 4 (4=61-80%) | 3 (3=41-60%) | 2 (2=21-40%) | 4 (4=61-80%) | 3 (3=41-60%) | 5 (5=81-100%) | 5 (5=81-100%) | 5 (5=81-100%) | 4 (4=61-80%) | 5 (5=81-100%)
3 | FC(F)(F)c1ccc2c(Oc3ncc(Cl)cn3)cccc2n1 [Compound 1.020, 5-(5-chloropyrimidin-2-yl)oxy-2 (trifluoromethyl)quinoline] | 5 (5=81-100%) | 5 (5=81-100%) | 4 (4=61-80%) | 4 (4=61-80%) | 5 (5=81-100%) | 5 (5=81-100%) | 5 (5=81-100%) | 5 (5=81-100%) | 4 (4=61-80%) | 5 (5=81-100%)
4 | Cc1cc(C(F)(F)F)nc2cccc(Oc3ncc(Cl)cn3)c12 [Compound 1.021] | 3 (3=41-60%) | 2 (2=21-40%) | 1 (1=0-20%) | 2 (2=21-40%) | 1 (1=0-20%) | 1 (1=0-20%) | 1 (1=0-20%) | 1 (1=0-20%) | 1 (1=0-20%) | 1 (1=0-20%)
5 | Clc1cnc(Oc2cccc3ccncc23)nc1 [Compound 1.022] | 1 (1=0-20%) | 2 (2=21-40%) | 1 (1=0-20%) | 1 (1=0-20%) | 1 (1=0-20%) | 1 (1=0-20%) | 1 (1=0-20%) | 1 (1=0-20%) | 1 (1=0-20%) | 1 (1=0-20%)
6 | Cc1cnc(Oc2cccc3nc(C(F)(F)F)ccc23)nc1 [Compound 1.040] | 4 (4=61-80%) | 4 (4=61-80%) | 4 (4=61-80%) | 5 (5=81-100%) | 4 (4=61-80%) | 5 (5=81-100%) | 5 (5=81-100%) | 5 (5=81-100%) | 5 (5=81-100%) | 5 (5=81-100%)
7 | FC(F)(F)c1ccc2c(Oc3ncc(Br)cn3)cccc2n1 [Compound 1.041] | 5 (5=81-100%) | 5 (5=81-100%) | 2 (2=21-40%) | 3 (3=41-60%) | 4 (4=61-80%) | 5 (5=81-100%) | 5 (5=81-100%) | 3 (3=41-60%) | 2 (2=21-40%) | 4 (4=61-80%)
8 | FC(F)(Cl)c1ncc2c(Oc3ncc(Cl)cn3)ccc(Cl)c2n1 [Compound 1.044] | 3 (3=41-60%) | 3 (3=41-60%) | 1 (1=0-20%) | 2 (2=21-40%) | 3 (3=41-60%) | 3 (3=41-60%) | 5 (5=81-100%) | 2 (2=21-40%) | 1 (1=0-20%) | 5 (5=81-100%)
9 | Cc1ccc(Oc2ncc(Br)cn2)c2cnc(C(F)(F)Cl)nc12 [Compound 1.047] | 2 (2=21-40%) | 2 (2=21-40%) | 1 (1=0-20%) | 2 (2=21-40%) | 1 (1=0-20%) | 2 (2=21-40%) | 2 (2=21-40%) | 1 (1=0-20%) | 1 (1=0-20%) | 1 (1=0-20%)
10 | CCOc1ncc2c(Oc3ncc(Cl)cn3)cccc2n1 [Compound 1.063, 5-(5-chloropyrimidin-2-yl)oxy-2-ethoxy-quinazoline] | 5 (5=81-100%) | 5 (5=81-100%) | 5 (5=81-100%) | 5 (5=81-100%) | 4 (4=61-80%) | 5 (5=81-100%) | 5 (5=81-100%) | 5 (5=81-100%) | 5 (5=81-100%) | 4 (4=61-80%)
11 | Cc1nc(C(F)(F)F)nc2c(C#N)ccc(Oc3ncc(Cl)cn3)c12 [Compound 1.064] | 1 (1=0-20%) | 1 (1=0-20%) | 1 (1=0-20%) | 1 (1=0-20%) | 1 (1=0-20%) | 1 (1=0-20%) | 1 (1=0-20%) | 1 (1=0-20%) | 1 (1=0-20%) | 1 (1=0-20%)
12 | Cc1ccc(Oc2ncc(Cl)cn2)c2cnc(C(F)(F)F)nc12 [Compound 1.068] | 3 (3=41-60%) | 2 (2=21-40%) | 1 (1=0-20%) | 2 (2=21-40%) | 1 (1=0-20%) | 5 (5=81-100%) | 5 (5=81-100%) | 3 (3=41-60%) | 2 (2=21-40%) | 3 (3=41-60%)
